Like-named read-outs stand apart in the source and are kept apart here.
Key:
Type in all cases: in vivo
[1] = system: barnyardgrass (Echinochloa crus-galli); assay: Test A pre-/postemergence plant response; conditions: Echinochloa crus-galli, 240 h, read-out: Plant response rating, Barnyardgrass; for pest or weed control at 125 g/ha: 125 g ai/ha; for pest or weed control at 500 g/ha: 500 g ai/ha, approx. ten days
How it was run: (§1)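 Plants grown from seed in a loam soil and sand mix received test compounds both as a preemergence soil spray and, at the same time, as a postemergence spray at the one- to two-leaf stage. Injury was judged visually against untreated controls roughly ten days later, 0 meaning no effect and 100 complete control.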

[2] = system: giant foxtail (Setaria faberii); assay: Test A pre-/postemergence plant response; conditions: Setaria faberi, 240 h, read-out: Plant response rating, Foxtail, Giant; for pest or weed control at 125 g/ha: 125 g ai/ha; for pest or weed control at 500 g/ha: 500 g ai/ha, approx. ten days
How it was run: as §1

[3] = system: pigweed (Amaranthus retroflexus); assay: Test A pre-/postemergence plant response; conditions: Amaranthus retroflexus, 240 h, read-out: Plant response rating, Pigweed; for pest or weed control at 125 g/ha: 125 g ai/ha; for pest or weed control at 500 g/ha: 500 g ai/ha, approx. ten days
How it was run: as §1

[4] = system: corn (Zea mays); assay: Test A pre-/postemergence plant response; conditions: Zea mays, 240 h; for Corn plant response rating (crop injury, 0 = no effect, 100 = complete kill) at 125 g/ha: 125 g ai/ha; for Corn plant response rating (crop injury, 0 = no effect, 100 = complete kill) at 500 g/ha: 500 g ai/ha, approx. ten days
How it was run: as §1

[5] = system: large crabgrass (Digitaria sanguinalis); assay: Test A pre-/postemergence plant response; conditions: Digitaria sanguinalis, 240 h, read-out: Plant response rating, Crabgrass, Large; for pest or weed control at 125 g/ha: 125 g ai/ha; for pest or weed control at 500 g/ha: 500 g ai/ha, approx. ten days
How it was run: as §1

[6] = system: morningglory (Ipomoea spp.); assay: Test A pre-/postemergence plant response; conditions: Ipomoea, 240 h, read-out: Plant response rating, Morningglory; for pest or weed control at 125 g/ha: 125 g ai/ha; for pest or weed control at 500 g/ha: 500 g ai/ha, approx. ten days
How it was run: as §1

[7] = system: wheat (Triticum aestivum); assay: Test A pre-/postemergence plant response; conditions: Triticum aestivum, 240 h, read-out: Plant response rating, Wheat; for plant injury at 125 g/ha: 125 g ai/ha; for plant injury at 500 g/ha: 500 g ai/ha, approx. ten days
How it was run: as §1

[8] = system: velvetleaf (Abutilon theophrasti); assay: Test A pre-/postemergence plant response; conditions: Abutilon theophrasti, 240 h, read-out: Plant response rating, Velvetleaf; for pest or weed control at 125 g/ha: 125 g ai/ha; for pest or weed control at 500 g/ha: 500 g ai/ha, approx. ten days
How it was run: as §1

[9] = system: barnyardgrass (Echinochloa crus-galli); assay: Test B flooded paddy test
How it was run: (§2)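 Each compound is added to standing floodwater (3 cm above soil, maintained) in pots of 2-leaf-stage plants; greenhouse exposure lasts 13–15 d before visual comparison with controls on a 0–100 control scale.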

[10] = system: rice (Oryza sativa); assay: Test B flooded paddy test
How it was run: as §2

[11] = system: umbrella sedge (Cyperus difformis); assay: Test B flooded paddy test
How it was run: as §2

[12] = system: ducksalad (Heteranthera limosa); assay: Test B flooded paddy test
How it was run: as §2

[13] = post-emergence, Postemergence, 0 to 100 scale where 0 is no effect and 100 is complete control
[14] = post-emergence, Postemergence, 0 to 100 scale, 0 = no effect, 100 = complete control
[15] = pre-emergence, Preemergence, 0 to 100 scale, 0 = no effect, 100 = complete control
[16] = pre-emergence, Preemergence, visual injury, 0 to 100 scale (0 no effect, 100 complete control)
[17] = Flood, 31 g ai/ha, scale 0 to 100 (0 no effect, 100 complete control)

COCCn1c(-c2ccsc2)ncc(C(=O)C2=C(O)CCCC2=O)c1=O [Compound 97, 5-[(2-hydroxy-6-oxo-1-cyclohexen-1-yl)carbonyl]-3-(2-methoxyethyl)-2-(3-thienyl)-4(3H)-pyrimidinone]
0%: Corn plant response rating (crop injury, 0 = no effect, 100 = complete kill) at 125 g/ha [4, 15] | Corn plant response rating (crop injury, 0 = no effect, 100 = complete kill) at 500 g/ha [4, 16] | plant injury at 125 g/ha [7, 13] | plant injury at 125 g/ha [7, 15] | plant injury at 500 g/ha [7, 16] | plant injury at 62 g/ha ([10]; Oryza sativa, Flood (flooded paddy test), 62 g ai/ha, scale of 0 to 100 where 0 is no effect and 100 is complete control, 13 to 15 days, read-out: Plant response rating, Rice) | plant injury at 125 g/ha ([10]; Oryza sativa, Flood (flooded paddy test), 125 g ai/ha, scale 0 to 100, 0 is no effect, 100 is complete control, 13 to 15 days, read-out: Plant response rating, Rice)
80%: pest or weed control at 500 g/ha [2, 14] | Corn plant response rating (crop injury, 0 = no effect, 100 = complete kill) at 500 g/ha [4, 14] | pest or weed control at 125 g/ha [5, 13] | pest or weed control at 500 g/ha [6, 16] | pest or weed control at 250 g/ha ([11]; Cyperus difformis, 360 h, 250 g ai/ha, flooded paddy test, visual rating on 0 to 100 scale (0 no effect, 100 complete control) after 13 to 15 days, read-out: Plant response rating, Flood, Sedge, Umbrella)
30%: pest or weed control at 62 g/ha ([12]; Heteranthera limosa, 360 h, Flood (flooded paddy test), 62 g ai/ha, scale of 0 to 100 where 0 is no effect and 100 is complete control, 13 to 15 days, read-out: Plant response rating, Ducksalad) | pest or weed control at 125 g/ha ([12]; Heteranthera limosa, 360 h, Flood (flooded paddy test), 125 g ai/ha, scale 0 to 100, 0 is no effect, 100 is complete control, 13 to 15 days, read-out: Plant response rating, Ducksalad)
20%: plant injury at 500 g/ha [7, 14]
50%: Corn plant response rating (crop injury, 0 = no effect, 100 = complete kill) at 125 g/ha [4, 13]
75%: pest or weed control at 250 g/ha ([9]; Echinochloa crus-galli, 360 h, 250 g ai/ha, flooded paddy test, visual rating on 0 to 100 scale (0 no effect, 100 complete control) after 13 to 15 days, read-out: Plant response rating, Flood, Barnyardgrass)
90%: pest or weed control at 125 g/ha [1, 13] | pest or weed control at 500 g/ha [1, 14] | pest or weed control at 500 g/ha [2, 16]
0: Rice plant response rating [10, 17]
100%: pest or weed control at 500 g/ha [1, 16] | pest or weed control at 125 g/ha [3, 13] | pest or weed control at 500 g/ha [3, 14] | pest or weed control at 125 g/ha [3, 15] | pest or weed control at 500 g/ha [3, 16] | pest or weed control at 500 g/ha [5, 14] | pest or weed control at 125 g/ha [5, 15] | pest or weed control at 500 g/ha [5, 16] | pest or weed control at 125 g/ha [6, 13] | pest or weed control at 500 g/ha [6, 14] | pest or weed control at 125 g/ha [8, 13] | pest or weed control at 500 g/ha [8, 14] | pest or weed control at 125 g/ha [8, 15] | pest or weed control at 500 g/ha [8, 16]
60%: pest or weed control at 125 g/ha [1, 15] | pest or weed control at 125 g/ha [2, 13] | pest or weed control at 125 g/ha [2, 15] | pest or weed control at 125 g/ha ([9]; Echinochloa crus-galli, 360 h, Flood (flooded paddy test), 125 g ai/ha, scale 0 to 100, 0 is no effect, 100 is complete control, 13 to 15 days, read-out: Plant response rating, Barnyardgrass)
30: Barnyardgrass plant response rating [9, 17] | Sedge, Umbrella plant response rating [11, 17] | Ducksalad plant response rating [12, 17]
40%: pest or weed control at 62 g/ha ([9]; Echinochloa crus-galli, 360 h, Flood (flooded paddy test), 62 g ai/ha, scale of 0 to 100 where 0 is no effect and 100 is complete control, 13 to 15 days, read-out: Plant response rating, Barnyardgrass) | plant injury at 250 g/ha ([10]; Oryza sativa, 250 g ai/ha, flooded paddy test, visual rating on 0 to 100 scale (0 no effect, 100 complete control) after 13 to 15 days, read-out: Plant response rating, Flood, Rice) | pest or weed control at 62 g/ha ([11]; Cyperus difformis, 360 h, Flood (flooded paddy test), 62 g ai/ha, scale of 0 to 100 where 0 is no effect and 100 is complete control, 13 to 15 days, read-out: Plant response rating, Sedge, Umbrella)
70%: pest or weed control at 125 g/ha [6, 15] | pest or weed control at 125 g/ha ([11]; Cyperus difformis, 360 h, Flood (flooded paddy test), 125 g ai/ha, scale 0 to 100, 0 is no effect, 100 is complete control, 13 to 15 days, read-out: Plant response rating, Sedge, Umbrella) | pest or weed control at 250 g/ha ([12]; Heteranthera limosa, 360 h, 250 g ai/ha, flooded paddy test, visual rating on 0 to 100 scale (0 no effect, 100 complete control) after 13 to 15 days, read-out: Plant response rating, Flood, Ducksalad)

From patent publication US8952024B2, “Herbicidal pyrimidone derivatives” (E I du Pont de Nemours and Company, priority 2009, dated 2015)
